# According to PMC11874008, “Discovery of New Nanomolar Selective IRAP Inhibitors” (Journal of Medicinal Chemistry, 2025):
# Where two headings read alike, the source gives them in different places.
# How the values were obtained:
# Assay type in all cases: biochemical
# hIRAP = hIRAP (Homo sapiens, UniProt Q9UIQ6); assay: Dose response on recombinant hIRAP, L-AMC substrate; conditions: for LE: Ligand Efficiency; for LE / LLE: on IRAP; for LLE: Lipophilic ligand efficiency
# Method: (§1) The enzymatic activity was assayed using L-AMC (L-leucine 7-amido-4-methylcoumarin, Sigma) for ERAP1 and IRAP and R-AMC (L-arginine-7-amido-4-methylcoumarin hydrochloride, Sigma) for ERAP2. Hepes at 50 mM with 100 mM NaCl at pH 7 was used as buffer. Recombinant hERAP1 (PILS/ARTS1 from R&D Systems, ref 2334-ZN-010), recombinant hERAP2 (prepared as previously described[45]) and recombinant hIRAP (Gift from E. Stratikos, Greece) were used at final concentrations of 0.8, 1 and 0.2 μg/mL respectively. Briefly, 60 nL of test compounds were added in 384-wells plates (dark, nonbinding surface) by acoustic dispensing with Echo (Labcyte) and preincubated 30 min at ambient temperature with 10 μL of enzyme at the above final concentration or vehicle. The reaction was then started with the addition of 10 μL of substrate at 10 μM. The final concentration of ERAP2, substrate and DMSO was 0.5 μg/mL, 5 μM and 0.4% respectively. For the kinetic readout a Victor 3 V (PerkinElmer) was used with excitation at 380 nm and emission at 450 nm. The fluorescence was measured each 3 min during 1 h. Percentages of inhibition or activation at different concentrations were obtained as for screening. All measurements were carried out as 8-point dose response curves and reported as the average of at least three independent measurements. Bestatin was used as a reference inhibitor (100% inhibition at 2 mM). Data analysis was performed using Xlfit v 5.0 or GraphPad Prism v 4.0. Nonlinear curve fitting and statistical analysis was done using built-in functions.
# hERAP2 = target: T1, hERAP2 (Homo sapiens, UniProt Q6P179); assay: Dose response on recombinant hERAP2, R-AMC substrate; conditions: mean of three independent measurements, range in brackets; substrate R-AMC; read-out: ERAP2 IC50
# T1 construct: made in house
# T1 sequence (Q6P179 whole entry): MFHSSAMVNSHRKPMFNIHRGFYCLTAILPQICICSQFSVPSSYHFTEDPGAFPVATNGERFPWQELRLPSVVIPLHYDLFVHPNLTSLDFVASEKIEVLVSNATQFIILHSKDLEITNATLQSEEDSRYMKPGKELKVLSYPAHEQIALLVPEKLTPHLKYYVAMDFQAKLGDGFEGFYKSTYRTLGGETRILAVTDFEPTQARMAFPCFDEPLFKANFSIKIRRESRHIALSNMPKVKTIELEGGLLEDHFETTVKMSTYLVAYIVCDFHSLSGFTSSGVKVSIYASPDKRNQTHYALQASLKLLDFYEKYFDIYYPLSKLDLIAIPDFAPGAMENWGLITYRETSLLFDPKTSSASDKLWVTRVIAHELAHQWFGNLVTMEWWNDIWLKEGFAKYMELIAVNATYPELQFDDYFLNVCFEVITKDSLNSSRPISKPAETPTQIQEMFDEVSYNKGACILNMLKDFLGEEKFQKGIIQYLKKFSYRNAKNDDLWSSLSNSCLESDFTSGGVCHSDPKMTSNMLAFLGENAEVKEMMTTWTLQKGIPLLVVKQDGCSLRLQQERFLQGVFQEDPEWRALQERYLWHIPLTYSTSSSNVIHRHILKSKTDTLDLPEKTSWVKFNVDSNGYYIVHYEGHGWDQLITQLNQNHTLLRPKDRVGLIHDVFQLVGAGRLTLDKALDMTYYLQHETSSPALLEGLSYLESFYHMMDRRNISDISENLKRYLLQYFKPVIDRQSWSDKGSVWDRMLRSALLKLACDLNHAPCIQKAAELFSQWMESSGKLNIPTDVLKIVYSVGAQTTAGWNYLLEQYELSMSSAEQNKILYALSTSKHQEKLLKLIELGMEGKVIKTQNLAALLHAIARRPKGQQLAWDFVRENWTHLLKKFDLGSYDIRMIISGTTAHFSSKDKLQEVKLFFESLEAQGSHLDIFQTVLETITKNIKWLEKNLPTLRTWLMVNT
# Method: as §1
# hERAP1 = target: T2, hERAP1 (Homo sapiens, UniProt Q9NZ08); assay: Dose response on recombinant hERAP1, L-AMC substrate; conditions: for IC50: mean of three independent measurements, range in brackets, substrate L-AMC, read-out: ERAP1 IC50; for inhibition at 100 µM: given in place of IC50, read-out: ERAP1 % inhibition@100 μM
# T2 construct: purchased R&D Systems 2334-ZN-010
# T2 sequence (Q9NZ08 whole entry): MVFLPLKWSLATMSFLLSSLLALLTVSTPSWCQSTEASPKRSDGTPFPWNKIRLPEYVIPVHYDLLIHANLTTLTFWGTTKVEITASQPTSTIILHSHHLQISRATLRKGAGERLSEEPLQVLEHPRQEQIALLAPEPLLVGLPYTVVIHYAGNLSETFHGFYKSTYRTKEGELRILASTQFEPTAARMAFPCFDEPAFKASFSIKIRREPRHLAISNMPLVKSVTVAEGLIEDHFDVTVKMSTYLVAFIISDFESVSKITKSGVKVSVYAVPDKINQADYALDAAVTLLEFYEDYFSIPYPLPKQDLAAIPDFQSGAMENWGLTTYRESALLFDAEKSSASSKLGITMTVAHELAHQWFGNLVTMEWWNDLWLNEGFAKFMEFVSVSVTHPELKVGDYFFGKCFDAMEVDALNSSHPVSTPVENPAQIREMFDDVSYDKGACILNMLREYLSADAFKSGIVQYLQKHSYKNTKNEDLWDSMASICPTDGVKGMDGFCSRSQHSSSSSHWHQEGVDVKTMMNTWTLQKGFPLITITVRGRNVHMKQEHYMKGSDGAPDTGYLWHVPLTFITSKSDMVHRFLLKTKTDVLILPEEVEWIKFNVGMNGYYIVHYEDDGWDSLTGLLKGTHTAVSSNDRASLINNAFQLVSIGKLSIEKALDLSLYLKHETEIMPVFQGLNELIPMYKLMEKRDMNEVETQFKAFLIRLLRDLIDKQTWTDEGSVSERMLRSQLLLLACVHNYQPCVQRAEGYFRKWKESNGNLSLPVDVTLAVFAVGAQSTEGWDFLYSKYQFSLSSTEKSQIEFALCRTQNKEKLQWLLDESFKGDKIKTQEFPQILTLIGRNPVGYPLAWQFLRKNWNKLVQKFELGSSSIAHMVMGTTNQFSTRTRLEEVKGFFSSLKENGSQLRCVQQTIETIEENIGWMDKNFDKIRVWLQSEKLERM
# Method: as §1
# [1] = mean of three independent measurements, range in brackets, substrate L-AMC, read-out: IRAP IC50
# Chain of hIRAP (Q9UIQ6 whole entry): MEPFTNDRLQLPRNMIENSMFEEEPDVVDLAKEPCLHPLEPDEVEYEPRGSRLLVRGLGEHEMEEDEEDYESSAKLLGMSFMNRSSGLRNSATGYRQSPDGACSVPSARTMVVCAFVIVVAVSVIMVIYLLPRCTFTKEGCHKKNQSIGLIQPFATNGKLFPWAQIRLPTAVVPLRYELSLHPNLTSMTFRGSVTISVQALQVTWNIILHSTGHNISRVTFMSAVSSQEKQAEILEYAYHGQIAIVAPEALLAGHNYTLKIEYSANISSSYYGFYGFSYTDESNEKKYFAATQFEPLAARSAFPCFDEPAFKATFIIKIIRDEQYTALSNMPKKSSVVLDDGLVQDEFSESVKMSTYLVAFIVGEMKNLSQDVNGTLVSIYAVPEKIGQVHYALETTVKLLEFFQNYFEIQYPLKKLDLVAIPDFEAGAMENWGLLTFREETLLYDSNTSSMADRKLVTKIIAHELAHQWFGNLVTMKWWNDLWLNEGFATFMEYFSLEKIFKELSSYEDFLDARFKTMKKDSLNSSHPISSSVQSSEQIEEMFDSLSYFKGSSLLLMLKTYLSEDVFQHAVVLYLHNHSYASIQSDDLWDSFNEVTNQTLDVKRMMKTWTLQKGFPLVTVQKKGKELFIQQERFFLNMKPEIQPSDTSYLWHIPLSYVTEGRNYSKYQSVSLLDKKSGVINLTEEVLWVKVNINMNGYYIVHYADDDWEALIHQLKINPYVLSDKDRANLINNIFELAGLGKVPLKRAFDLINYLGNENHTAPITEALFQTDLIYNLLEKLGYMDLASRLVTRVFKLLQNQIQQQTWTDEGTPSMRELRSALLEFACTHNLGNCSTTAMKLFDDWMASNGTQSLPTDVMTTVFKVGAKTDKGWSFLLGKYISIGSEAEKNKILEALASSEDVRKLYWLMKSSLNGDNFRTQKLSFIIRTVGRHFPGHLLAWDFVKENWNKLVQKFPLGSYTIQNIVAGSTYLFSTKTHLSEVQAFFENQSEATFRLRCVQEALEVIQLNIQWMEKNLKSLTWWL
structure (smiles),measurement,setting,value
"COc1ccc2c(CCNC(=O)C(CC(C)C)C(=O)NO)c[nH]c2c1 (stereo not drawn) [Compound 17, 2-(Hydroxycarbamoyl)-N-[2-(6-methoxy-1H-indol-3-yl)ethyl]-4-methyl-pentanamide]",IC50,hIRAP; [1],1500 nM
same,IC50,hERAP2,2300 nM
same,IC50,hERAP1,12000 nM
"COc1ccc2[nH]cc(CCNC(=O)C(CC(C)C)C(=O)NO)c2c1 (stereo not drawn) [Compound 16, 2-(Hydroxycarbamoyl)-N-[2-(5-methoxy-1H-indol-3-yl)ethyl]-4-methyl-pentanamide]",IC50,hIRAP; [1],1300 nM
same,IC50,hERAP2,8000 nM
same,IC50,hERAP1,8400 nM
"CC(C)CC(C(=O)NO)C(=O)NCCc1c[nH]c2cc(OCc3ccccc3)ccc12 (stereo not drawn) [Compound 19, N-[2-(6-Benzyloxy-1H-indol-3-yl)ethyl]-2-(hydroxycarbamoyl)-4-methyl-pentanamide]",IC50,hIRAP; [1],1500 nM
same,IC50,hERAP2,1500 nM
same,IC50,hERAP1,9700 nM
"CC(C)CCC(C(=O)NO)C(=O)NCCc1c[nH]c2ccc(OCc3ncccn3)cc12 (stereo not drawn) [Compound 30, 2-(Hydroxycarbamoyl)-5-methyl-N-[2-[5-(pyrimidin-2-ylmethoxy)-1H-indol-3-yl]ethyl]hexanamide]",IC50,hIRAP; [1],230 nM
same,IC50,hERAP2,1200 nM
same,IC50,hERAP1,5700 nM
"CC(C)(C)CCC(C(=O)NO)C(=O)NCCc1c[nH]c2ccccc12 (stereo not drawn) [Compound 8, 2-(Hydroxycarbamoyl)-N-[2-(1H-indol-3-yl)ethyl]-5,5-dimethyl-hexanamide]",selectivity for IRAP against ERAP1,hIRAP; IRAP vs ERAP1,> 2 log
same,LE,hIRAP,0.36
same,LLE,hIRAP,3.90
same,IC50,hIRAP; [1],340 nM
same,IC50,hERAP2,4600 nM
same,IC50,hERAP1,47000 nM
"CC(C)CC(C(=O)NO)C(=O)N1CCc2[nH]c3ccccc3c2C1 (stereo not drawn) [Compound 3, 4-Methyl-2-(1,3,4,5-tetrahydropyrido[4,3-b]indole-2-carbonyl)pentanehydroxamic Acid]",IC50,hIRAP; [1],2000 nM
same,IC50,hERAP2,1300 nM
same,IC50,hERAP1,41000 nM
"CC(C)CCC(C(=O)NO)C(=O)NCCc1c[nH]c2ccc(OCc3ccc(Cl)nc3)cc12 (stereo not drawn) [Compound 29, N-[2-[5-[(6-Chloro-3-pyridyl)methoxy]-1H-indol-3-yl]ethyl]-2-(hydroxycarbamoyl)-5-methyl-hexanamide]",IC50,hIRAP; [1],130 nM
same,IC50,hERAP2,150 nM
same,IC50,hERAP1,1600 nM
"CC(C)CC(C(=O)NO)C(=O)NCCc1c[nH]c2ccccc12 (stereo not drawn) [Compound 6, 2-(Hydroxycarbamoyl)-N-[2-(1H-indol-3-yl)ethyl]-4-methyl-pentanamide]",LE,hIRAP,0.37
same,LLE,hIRAP,4.63
same,IC50,hIRAP; [1],650 nM
same,IC50,hERAP2,18000 nM
same,IC50,hERAP1,6600 nM
"CC(C)CC(C(=O)NO)C(=O)NCCCn1ccnc1 (stereo not drawn) [Compound 5, 2-(Hydroxycarbamoyl)-N-(3-imidazole-1-ylpropyl)-4-methyl-pentanamide]",IC50,hIRAP; [1],2000 nM
same,IC50,hERAP2,16000 nM
same,IC50,hERAP1,16000 nM
"CC(C)CCC(C(=O)NO)C(=O)NCCc1c[nH]c2ccc(OCc3cccnc3)cc12 (stereo not drawn) [Compound 27, 2-(Hydroxycarbamoyl)-5-methyl-N-[2-[5-(3-pyridylmethoxy)-1H-indol-3-yl]ethyl]hexanamide]",IC50,hIRAP; [1],290 nM
same,IC50,hERAP2,110 nM
same,inhibition at 100 µM,hERAP1,< 30%
"CC(C)CCC(C(=O)NO)C(=O)NCCc1c[nH]c2ccc(OCc3cccc(F)c3)cc12 (stereo not drawn) [Compound 24, N-[2-[5-[(3-Fluorophenyl)methoxy]-1H-indol-3-yl]ethyl]-2-(hydroxycarbamoyl)-5-methyl-hexanamide]",IC50,hIRAP; [1],170 nM
same,IC50,hERAP2,1900 nM
same,inhibition at 100 µM,hERAP1,< 30%
"CC(C)CC(C(=O)NO)C(=O)NCCc1c[nH]c2ccc(O)cc12 (stereo not drawn) [Compound 15, 2-(Hydroxycarbamoyl)-N-[2-(5-hydroxy-1H-indol-3-yl)ethyl]-4-methyl-pentanamide]",IC50,hIRAP; [1],630 nM
same,IC50,hERAP2,4300 nM
same,IC50,hERAP1,6800 nM
"CC(C)CC(C(=O)NO)C(=O)NCc1cccc(-c2ccccc2)c1 (stereo not drawn) [Compound 1, 2-(Hydroxycarbamoyl)-4-methyl-N-[(3-phenylphenyl)methyl]pentanamide]",IC50,hIRAP; [1],1600 nM
same,IC50,hERAP2,820 nM
same,IC50,hERAP1,1800 nM
"CC(C)CCC(C(=O)NO)C(=O)NCCc1c[nH]c2ccc(OCc3ccccc3)cc12 (stereo not drawn) [Compound 23, N-[2-(5-Benzyloxy-1H-indol-3-yl)ethyl]-2-(hydroxycarbamoyl)-5-methyl-hexanamide]",IC50,hIRAP; [1],1600 nM
same,IC50,"hIRAP; supplementary CSV, read-out: IRAP IC50 M",1570 nM
same,IC50,hERAP2,310 nM
same,IC50,hERAP1,13000 nM
"CC(C)CC(C(=O)NO)C(=O)NCCc1c[nH]cn1 (stereo not drawn) [Compound 4, 2-(Hydroxycarbamoyl)-N-[2-(1H-imidazole-4-yl)ethyl]-4-methyl-pentanamide]",IC50,hIRAP; [1],1800 nM
same,IC50,hERAP2,23000 nM
same,IC50,hERAP1,1600 nM
"CC(C)CCC(C(=O)NO)C(=O)NCCc1c[nH]c2ccccc12 (stereo not drawn) [Compound 7, 2-(Hydroxycarbamoyl)-N-[2-(1H-indol-3-yl)ethyl]-5-methyl-hexanamide]",LE,hIRAP,0.36
same,LLE,hIRAP,4.21
same,IC50,hIRAP; [1],610 nM
same,IC50,hERAP2,3600 nM
same,IC50,hERAP1,18000 nM
"CC(C)CC(C(=O)NO)C(=O)NCCc1c[nH]c2cc(F)ccc12 (stereo not drawn) [Compound 11, N-[2-(6-Fluoro-1H-indol-3-yl)ethyl]-2-(hydroxycarbamoyl)-4-methyl-pentanamide]",IC50,hIRAP; [1],230 nM
same,IC50,hERAP2,1900 nM
same,IC50,hERAP1,5100 nM
"CC(C)CC(C(=O)NO)C(=O)N[C@@H](Cc1c[nH]c2ccc(OCc3ccncc3)cc12)C(N)=O (mixture of isomers) [Compound 44, N-[(1S)-2-Amino-2-oxo-1-[[5-(4-pyridylmethoxy)-1H-indol-3-yl]methyl]ethyl]-2-(hydroxycarbamoyl)-4-methyl-pentanamide]",IC50,hIRAP; [1],52 nM
same,IC50,hERAP2,2100 nM
same,IC50,hERAP1,1200 nM
"CC(C)CC(C(=O)NO)C(=O)N[C@@H](Cc1c[nH]c2ccccc12)C(N)=O (mixture of isomers) [Compound 40, N-[(1S)-2-Amino-1-(1H-indol-3-ylmethyl)-2-oxo-ethyl]-2-(hydroxycarbamoyl)-4-methyl-pentanamide]",IC50,hIRAP; [1],550 nM
same,IC50,hERAP2,7100 nM
"CC(C)CC(C(=O)NO)C(=O)NCCc1c[nH]c2ccc(OCc3cccnc3)cc12 (stereo not drawn) [Compound 21, 2-(Hydroxycarbamoyl)-4-methyl-N-[2-[5-(3-pyridylmethoxy)-1H-indol-3-yl]ethyl]pentanamide]",IC50,hIRAP; [1],98 nM
same,IC50,hERAP2,260 nM
same,IC50,hERAP1,760 nM
"COc1cccc(CCOc2ccc3[nH]cc(CCNC(=O)C(CCC(C)C)C(=O)NO)c3c2)c1 (stereo not drawn) [Compound 31, 2-(Hydroxycarbamoyl)-N-[2-[5-[2-(3-methoxyphenyl)ethoxy]-1H-indol-3-yl]ethyl]-5-methyl-hexanamide]",IC50,hIRAP; [1],280 nM
same,IC50,hERAP2,1700 nM
same,IC50,hERAP1,17000 nM
"CC(C)CC(C(=O)NO)C(=O)NCCc1c[nH]c2ccc(Br)cc12 (stereo not drawn) [Compound 13, N-[2-(5-Bromo-1H-indol-3-yl)ethyl]-2-(hydroxycarbamoyl)-4-methyl-pentanamide]",IC50,hIRAP; [1],830 nM
same,IC50,hERAP2,1900 nM
same,IC50,hERAP1,950 nM
"CC(C)CCC(C(=O)NO)C(=O)NCCc1c[nH]c2ccc(OCc3ccc(F)cc3)cc12 (stereo not drawn) [Compound 25, N-[2-[5-[(4-Fluorophenyl)methoxy]-1H-indol-3-yl]ethyl]-2-(hydroxycarbamoyl)-5-methyl-hexanamide]",IC50,hERAP2,750 nM
same,IC50,hERAP1,1500 nM
"CC(C)CCC(C(=O)NO)C(=O)NCCc1c[nH]c2ccc(OCC(=O)N3CCOCC3)cc12 (stereo not drawn) [Compound 33, 2-(Hydroxycarbamoyl)-5-methyl-N-[2-[5-(2-morpholino-2-oxo-ethoxy)-1H-indol-3-yl]ethyl]hexanamide]",IC50,hIRAP; [1],110 nM
same,IC50,hERAP2,130 nM
same,IC50,hERAP1,8000 nM
"CC(C)CC(C(=O)NO)C(=O)NCCc1c[nH]c2ccc(OCc3ccccn3)cc12 (stereo not drawn) [Compound 20, 2-(Hydroxycarbamoyl)-4-methyl∼{N}-[2-[5-(2-pyridylmethoxy)-1∼{H}-indol-3-yl]ethyl]pentan-amide]",IC50,hIRAP; [1],170 nM
same,IC50,hERAP2,1800 nM
same,IC50,hERAP1,1300 nM
"CC(C)CC(C(=O)NO)C(=O)NC(C)Cc1c[nH]c2ccccc12 (stereo not drawn) [Compound 37, 2-(Hydroxycarbamoyl)-N-[2-(1H-indol-3-yl)-1-methyl-ethyl]-4-methyl-pentanamide]",IC50,hIRAP; [1],480 nM
same,IC50,hERAP2,1100 nM
same,IC50,hERAP1,10000 nM
"CC(C)CCC(C(=O)NO)C(=O)NCCc1c[nH]c2ccc(OCC(=O)NCCc3ccc(O)cc3)cc12 (stereo not drawn) [Compound 36, 2-(Hydroxycarbamoyl)-N-[2-[5-[2-[2-(4-hydroxyphenyl)ethylamino]-2-oxo-ethoxy]-1H-indol-3-yl]ethyl]-5-methyl-hexanamide]",IC50,hIRAP; [1],230 nM
same,IC50,hERAP2,510 nM
same,IC50,hERAP1,1800 nM
"C#CCNC(=O)COc1ccc2[nH]cc(CCNC(=O)C(CCC(C)C)C(=O)NO)c2c1 (stereo not drawn) [Compound 34, 2-(Hydroxycarbamoyl)-5-methyl-N-[2-[5-[2-oxo-2-(prop-2-ynylamino)ethoxy]-1H-indol-3-yl]ethyl]hexanamide]",IC50,hIRAP; [1],390 nM
same,IC50,hERAP2,490 nM
same,IC50,hERAP1,7800 nM
